Data from patent publication US20230066011A1, “PYRROLOPYRIMIDINE DERIVATIVE, AND PHARMACEUTICAL COMPOSITION FOR PREVENTING OR TREATING PROTEIN KINASE-RELATED DISEASE COMPRISING SAME AS ACTIVE INGREDIENT” (VORONOI CO., LTD., priority 2019, published 2023).

What was measured:
Format in all cases: binding
[1] = target: T1, CLK4 (Homo sapiens, UniProt Q9HAZ1); assay: ScanMAX Kinase analysis panel, CLK4; conditions: 1 μM in DMSO; <35% considered inhibitory; read-out: percent control (% control), CLK4
T1 construct: purchased DiscoverX Corp. (ScanMAX Kinase analysis panel, service)
T1 sequence (Q9HAZ1 whole entry): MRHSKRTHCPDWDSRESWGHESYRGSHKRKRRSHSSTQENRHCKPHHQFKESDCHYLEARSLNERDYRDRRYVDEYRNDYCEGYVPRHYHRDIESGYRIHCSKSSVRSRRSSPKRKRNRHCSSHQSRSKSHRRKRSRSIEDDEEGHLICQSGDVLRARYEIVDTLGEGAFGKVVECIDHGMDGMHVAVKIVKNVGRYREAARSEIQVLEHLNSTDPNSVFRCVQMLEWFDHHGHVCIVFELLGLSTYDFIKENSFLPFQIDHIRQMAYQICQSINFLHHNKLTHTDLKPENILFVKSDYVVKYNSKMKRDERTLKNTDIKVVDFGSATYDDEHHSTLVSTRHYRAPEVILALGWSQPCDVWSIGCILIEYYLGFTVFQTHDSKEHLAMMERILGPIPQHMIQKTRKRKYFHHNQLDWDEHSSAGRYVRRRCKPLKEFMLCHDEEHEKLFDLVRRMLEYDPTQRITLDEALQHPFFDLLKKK
Experimental: (§1) Specifically, the enzyme (kinase) selectivity of Example compounds 238, 361, 411, 157, 161, 228, and 158 selected from the Example compounds of the present invention was determined by commissioning DiscoverX Corp., and an experiment was performed using a ScanMAX™ Kinase analysis panel. In this case, a concentration of the drug with which the enzymes were treated was 1 μM in DMSO, and the percent control (% control) was defined in the same manner as in the following Expression 1.
(§2) (Example Compound−Positive Control)/(Negative Control−Positive Control)×100 [Expression 1]
(§3) wherein the positive control represents a compound having a percent control of 0%, and the negative control represents DMSO having a percent control of 100%. For the enzyme selectivity of the present invention, it was considered that the compound has an inhibitory activity on each of the enzymes when the percent control for the corresponding enzyme was <35% (i. e., less than 35%).

[2] = target: T2, GAK (Homo sapiens, UniProt O14976); assay: ScanMAX Kinase analysis panel, GAK; conditions: 1 μM in DMSO; <35% considered inhibitory; read-out: percent control (% control), GAK
T2 construct: purchased DiscoverX Corp. (ScanMAX Kinase analysis panel, service)
T2 sequence (O14976 1-1311): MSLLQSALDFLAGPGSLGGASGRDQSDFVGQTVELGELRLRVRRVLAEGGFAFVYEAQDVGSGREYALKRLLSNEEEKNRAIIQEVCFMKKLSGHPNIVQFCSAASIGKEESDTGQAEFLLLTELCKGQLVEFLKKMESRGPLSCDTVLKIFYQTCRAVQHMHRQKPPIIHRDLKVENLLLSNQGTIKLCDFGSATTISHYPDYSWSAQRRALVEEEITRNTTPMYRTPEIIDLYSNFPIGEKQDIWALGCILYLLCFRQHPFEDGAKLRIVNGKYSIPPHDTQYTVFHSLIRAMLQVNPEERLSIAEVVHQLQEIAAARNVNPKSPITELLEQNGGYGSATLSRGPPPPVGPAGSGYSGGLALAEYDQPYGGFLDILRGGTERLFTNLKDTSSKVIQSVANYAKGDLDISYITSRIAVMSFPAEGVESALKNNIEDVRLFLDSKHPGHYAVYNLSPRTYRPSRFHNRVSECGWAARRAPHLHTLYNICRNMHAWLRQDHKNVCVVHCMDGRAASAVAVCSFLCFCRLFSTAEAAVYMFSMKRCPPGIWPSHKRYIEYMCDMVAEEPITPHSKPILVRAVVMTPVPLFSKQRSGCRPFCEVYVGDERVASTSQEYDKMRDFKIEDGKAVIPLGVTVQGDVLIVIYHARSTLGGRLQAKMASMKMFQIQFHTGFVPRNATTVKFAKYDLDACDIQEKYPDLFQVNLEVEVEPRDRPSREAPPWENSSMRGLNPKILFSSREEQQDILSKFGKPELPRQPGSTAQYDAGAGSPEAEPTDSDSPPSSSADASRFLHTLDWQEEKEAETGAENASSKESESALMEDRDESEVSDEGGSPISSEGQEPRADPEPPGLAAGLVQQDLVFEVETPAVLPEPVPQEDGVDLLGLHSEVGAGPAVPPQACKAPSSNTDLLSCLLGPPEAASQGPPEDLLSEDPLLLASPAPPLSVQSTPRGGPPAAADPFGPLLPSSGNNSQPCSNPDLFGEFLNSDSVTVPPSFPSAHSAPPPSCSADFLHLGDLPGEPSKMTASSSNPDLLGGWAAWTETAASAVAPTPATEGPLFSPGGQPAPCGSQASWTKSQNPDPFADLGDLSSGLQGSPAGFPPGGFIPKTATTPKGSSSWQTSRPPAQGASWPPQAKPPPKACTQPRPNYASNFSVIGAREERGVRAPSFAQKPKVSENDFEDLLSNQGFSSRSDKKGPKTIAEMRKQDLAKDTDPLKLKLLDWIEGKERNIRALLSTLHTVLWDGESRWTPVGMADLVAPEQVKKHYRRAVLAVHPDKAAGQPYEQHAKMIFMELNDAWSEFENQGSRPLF
Experimental: as §1, §2, §3

[3] = target: T3, PHKG2 (Homo sapiens, UniProt P15735); assay: ScanMAX Kinase analysis panel, PHKG2; conditions: 1 μM in DMSO; <35% considered inhibitory; read-out: percent control (% control), PHKG2
T3 construct: purchased DiscoverX Corp. (ScanMAX Kinase analysis panel, service)
T3 sequence (P15735 1-406): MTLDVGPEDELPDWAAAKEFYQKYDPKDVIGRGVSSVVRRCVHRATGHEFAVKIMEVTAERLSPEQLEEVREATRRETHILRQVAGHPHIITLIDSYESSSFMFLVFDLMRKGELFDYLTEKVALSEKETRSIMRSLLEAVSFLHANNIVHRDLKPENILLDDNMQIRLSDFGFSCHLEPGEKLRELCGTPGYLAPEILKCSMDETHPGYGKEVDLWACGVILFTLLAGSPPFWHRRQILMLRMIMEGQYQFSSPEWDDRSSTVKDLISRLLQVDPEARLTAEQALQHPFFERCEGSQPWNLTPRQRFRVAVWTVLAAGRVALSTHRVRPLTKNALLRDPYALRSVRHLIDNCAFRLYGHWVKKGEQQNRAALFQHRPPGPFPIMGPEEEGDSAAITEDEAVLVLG
Experimental: as §1, §2, §3

[4] = target: LRRK2 (G2019S) (Homo sapiens, UniProt Q5S007, G2019S); assay: ScanMAX Kinase analysis panel, LRRK2 (G2019S); parameters: purchased DiscoverX Corp. (ScanMAX Kinase analysis panel, service); conditions: 1 μM in DMSO; <35% considered inhibitory; read-out: percent control (% control), LRRK2 (G2019S)
Chain of LRRK2 (G2019S) (Q5S007 whole entry G2019S): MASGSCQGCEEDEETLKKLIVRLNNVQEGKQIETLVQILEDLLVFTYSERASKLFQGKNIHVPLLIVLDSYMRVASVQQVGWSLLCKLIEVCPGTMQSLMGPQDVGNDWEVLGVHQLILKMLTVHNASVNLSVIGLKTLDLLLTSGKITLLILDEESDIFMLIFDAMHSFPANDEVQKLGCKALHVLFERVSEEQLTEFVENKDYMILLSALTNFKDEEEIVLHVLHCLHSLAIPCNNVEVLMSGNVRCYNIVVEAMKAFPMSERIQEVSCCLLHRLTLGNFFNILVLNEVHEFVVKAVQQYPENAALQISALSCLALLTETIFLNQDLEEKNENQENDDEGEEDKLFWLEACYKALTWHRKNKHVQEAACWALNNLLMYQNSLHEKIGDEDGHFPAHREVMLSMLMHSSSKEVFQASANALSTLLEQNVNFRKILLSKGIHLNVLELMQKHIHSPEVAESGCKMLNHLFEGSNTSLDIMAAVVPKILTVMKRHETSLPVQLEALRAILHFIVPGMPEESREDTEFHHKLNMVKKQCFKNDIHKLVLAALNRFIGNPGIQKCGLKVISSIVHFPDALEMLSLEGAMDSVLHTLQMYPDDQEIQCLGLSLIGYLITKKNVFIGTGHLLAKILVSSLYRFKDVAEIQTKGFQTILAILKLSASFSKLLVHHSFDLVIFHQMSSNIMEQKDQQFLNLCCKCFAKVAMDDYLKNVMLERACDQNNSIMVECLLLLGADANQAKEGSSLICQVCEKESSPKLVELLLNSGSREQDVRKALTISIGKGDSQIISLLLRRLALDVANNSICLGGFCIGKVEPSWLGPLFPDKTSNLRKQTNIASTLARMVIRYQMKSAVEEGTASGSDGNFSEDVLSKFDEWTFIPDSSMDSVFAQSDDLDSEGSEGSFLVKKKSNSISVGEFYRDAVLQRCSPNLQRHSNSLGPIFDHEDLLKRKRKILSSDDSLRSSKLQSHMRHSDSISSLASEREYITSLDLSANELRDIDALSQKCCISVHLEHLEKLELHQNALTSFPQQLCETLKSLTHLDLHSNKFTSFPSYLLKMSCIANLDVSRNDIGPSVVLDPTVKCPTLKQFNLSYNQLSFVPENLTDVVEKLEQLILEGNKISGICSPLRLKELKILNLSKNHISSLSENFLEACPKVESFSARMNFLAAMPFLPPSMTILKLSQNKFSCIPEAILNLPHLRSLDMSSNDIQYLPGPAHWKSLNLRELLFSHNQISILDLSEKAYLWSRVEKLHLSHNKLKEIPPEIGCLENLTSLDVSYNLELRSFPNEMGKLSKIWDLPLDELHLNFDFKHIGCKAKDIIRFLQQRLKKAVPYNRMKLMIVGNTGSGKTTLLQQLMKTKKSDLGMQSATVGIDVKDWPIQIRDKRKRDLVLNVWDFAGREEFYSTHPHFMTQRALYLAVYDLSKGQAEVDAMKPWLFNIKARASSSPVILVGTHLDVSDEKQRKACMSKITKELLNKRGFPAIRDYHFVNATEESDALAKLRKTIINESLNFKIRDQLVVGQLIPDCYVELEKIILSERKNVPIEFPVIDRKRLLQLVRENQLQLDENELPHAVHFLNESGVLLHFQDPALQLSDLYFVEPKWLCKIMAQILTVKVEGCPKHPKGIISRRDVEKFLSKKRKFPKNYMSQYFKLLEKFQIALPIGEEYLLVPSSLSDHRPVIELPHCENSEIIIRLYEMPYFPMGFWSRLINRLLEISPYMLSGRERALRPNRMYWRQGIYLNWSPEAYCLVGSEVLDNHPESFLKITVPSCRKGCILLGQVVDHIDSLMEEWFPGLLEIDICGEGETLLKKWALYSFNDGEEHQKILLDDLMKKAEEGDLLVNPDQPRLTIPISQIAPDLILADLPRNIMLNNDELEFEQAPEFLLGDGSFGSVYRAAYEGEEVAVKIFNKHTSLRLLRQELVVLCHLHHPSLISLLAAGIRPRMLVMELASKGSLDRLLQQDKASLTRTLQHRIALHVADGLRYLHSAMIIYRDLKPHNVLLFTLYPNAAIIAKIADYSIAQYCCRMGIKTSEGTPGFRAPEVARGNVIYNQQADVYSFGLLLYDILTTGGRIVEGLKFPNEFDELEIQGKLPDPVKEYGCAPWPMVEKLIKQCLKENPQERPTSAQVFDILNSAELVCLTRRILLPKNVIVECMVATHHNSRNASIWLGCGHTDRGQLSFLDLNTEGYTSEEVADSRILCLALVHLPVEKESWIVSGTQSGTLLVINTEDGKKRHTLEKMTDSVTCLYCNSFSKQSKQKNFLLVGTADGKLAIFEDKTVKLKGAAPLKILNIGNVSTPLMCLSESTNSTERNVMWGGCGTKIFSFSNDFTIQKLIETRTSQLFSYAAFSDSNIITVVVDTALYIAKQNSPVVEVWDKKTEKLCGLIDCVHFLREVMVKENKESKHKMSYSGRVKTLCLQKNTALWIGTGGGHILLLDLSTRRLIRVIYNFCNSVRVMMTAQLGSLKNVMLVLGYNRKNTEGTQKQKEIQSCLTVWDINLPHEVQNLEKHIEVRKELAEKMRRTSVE
Experimental: as §1, §2, §3

SMILES	remaining binding at 1 µM [1]	remaining binding at 1 µM [2]	remaining binding at 1 µM [3]	remaining binding at 1 µM [4]
CNc1nc(Nc2ccc(S(=O)(=O)N3CCC(N4CCOCC4)CC3)cc2OC)nc2[nH]cc(C(F)(F)F)c12 [Example 157, N^2-(2-methoxy-4-((4-morpholinopiperidin-1-yl)sulfonyl)phenyl)-N^4-methyl-5-(trifluoromethyl)-7H-pyrrolo[2,3-d]pyrimidine-2,4-diamine 2,2,2-trifluoroacetate]	0.55%	4.2%	5.8%	1.6%
O=C(c1ccc(Nc2nc(C3CC3)c3c(C(F)(F)F)c[nH]c3n2)c2c1OCCO2)N1CCC(N2CCOCC2)CC1 [Example 228, (8-((4-cyclopropyl-5-(trifluoromethyl)-7H-pyrrolo[2,3-d]pyrimidin-2-yl)amino)-2,3-dihydrobenzo[b][1,4]dioxin-5-yl)(4-morpholinopiperidin-1-yl)methanone]	0.05%	3%	5.5%	1.1%
CCCNc1nc(Nc2ccc(S(=O)(=O)N3CCC(N4CCOCC4)CC3)cc2OC)nc2[nH]cc(C(F)(F)F)c12 [Example 161, N^2-(2-methoxy-4-((4-morpholinopiperidin-1-yl)sulfonyl)phenyl)-N^4-propyl-5-(trifluoromethyl)-7H-pyrrolo[2,3-d]pyrimidine-2,4-diamine]	0.65%	4%	21%	0%
CCNc1nc(Nc2ccc(S(=O)(=O)N3CCC(N4CCOCC4)CC3)cc2OC)nc2[nH]cc(C(F)(F)F)c12 [Example 158, N^4-ethyl-N^2-(2-methoxy-4-((4-morpholinopiperidin-1-yl)sulfonyl)phenyl)-5-(trifluoromethyl)-7H-pyrrolo[2,3-d]pyrimidine-2,4-diamine 2,2,2-trifluoroacetate]	0.3%	21%	51%	3.6%

The remaining lines, values ahead:

remaining binding at 1 µM [1]	remaining binding at 1 µM [2]	remaining binding at 1 µM [3]	remaining binding at 1 µM [4]	SMILES
1.4%	2.4%	2.5%	1.3%	CNc1nc(Nc2ccc(P3(=O)CCN(C4CC4)CC3)cc2OC)nc2[nH]cc(C(F)(F)F)c12 [Example 411, 1-cyclopropyl-4-(3-methoxy-4-((4-(methylamino)-5-(trifluoromethyl)-7H-pyrrolo[2,3-d]pyrimidin-2-yl)amino)phenyl)-1,4-azaphosphinane-4-oxide]
2.8%	2.7%	3%	0%	C=CCNc1nc(Nc2ccc(S(=O)(=O)N3CCC(N4CCOCC4)CC3)cc2OC)nc2[nH]cc(C#N)c12 [Example 361, 4-(allylamino)-2-((2-methoxy-4-((4-morpholino-piperidin-1-yl)sulfonyl)phenyl)amino)-7H-pyrrolo[2,3-d]pyrimidine-5-carbonitrile]
3.6%	3.1%	2.2%	0.05%	CNc1nc(Nc2ccc(C(=O)N3CCC(N4CCOCC4)CC3)c3c2OCCO3)nc2[nH]cc(C(F)(F)F)c12 [Example 238, (8-((4-(methylamino)-5-(trifluoromethyl)-7H-pyrrolo[2,3-d]pyrimidin-2-yl)amino)-2,3-dihydrobenzo[b][1,4]dioxin-5-yl)(4-morpholinopiperidin-1-yl)methanone]
